Data on 39 molecules can be found in US20240025893A1, “PYRIMIDINE-AND NITROGEN-CONTAINING BICYCLIC COMPOUND” (Asahi Kasei Pharma Corporation, priority 2020, published 2024).

For assay [1], the system named is LPS-stimulated TNFα production in THP-1 cells. Description: LPS-stimulated TNFα production inhibition test using human acute monocytic leukemia cell strain THP-1. Type of assay: cell-based. The settings on record: Homo sapiens, LPS 2.5 ng/mL, average values. On the procedure:
By the THP-1 assay, influence of a test compound on the TNFα production induced by LPS stimulation can be evaluated. The THP-1 cells (ATCC, Cat. TIB-202) were inoculated on a 96-well plate at a density of 1×10^5 cells/160 μL/well, a test compound was added in a volume of 20 μL, and the plate was incubated at 37° C. for 1 hour in a 5% CO2 incubator. Then, LPS in a volume of 20 μL (final concentration 2.5 ng/mL, Sigma, Cat. L2630) was added, and the plate was further incubated for 4 hours. After the incubation, the plate was centrifuged, and 100 μL of the supernatant was taken from each well, and used for evaluation of the amount of TNFα using HTRF (Cisbio, Cat. 62TNFPEB). In the measurement of the amount of TNFα, the supernatant was diluted twice with the medium, and then added to wells of a 384-well plate in a volume of 10 μL, then anti-TNFα-cryptate (5 μL), and anti-TNFα-XL665 (5 μL) were added, and the plate was left standing overnight. The fluorescence intensity ratio for the wavelengths of 620 and 665 nm (620 nm/665 nm) was measured with a microplate reader, and the amount of TNFα in the supernatant was calculated by using a calibration curve. The TNFα production suppression ratio observed with no addition of LPS was defined to be 100%, the TNFα production suppression ratio observed with no addition of the test compound was defined to be 0%, and IC50 of the test compound was calculated by using the 4-parameter logistic model of the data analysis software XLfit (ID Business Solutions Ltd.).

A further assay deals with human IRAK-4 (Homo sapiens (Human), UniProt Q9NWZ3). Description: Measurement of human IRAK-4 inhibitory activity (TR-FRET, peptide substrate phosphorylation, 10 μM ATP). Particulars: 1 nM IRAK-4, 10 μM ATP, 23° C., 30 minutes; average values. Type of assay: biochemical. On the procedure:
For the measurement of the activity of the human IRAK-4 (Invitrogen, Cat. PV3362), phosphorylation of the IRAK-4 peptide substrate (biotin-KKKKRFSFKKSFKC) by the enzyme in the presence of 10 μM ATP (Sigma-Aldrich, Cat. A7699) was measured by the TR-FRET method. The enzymatic reaction was performed in a reaction buffer containing 50 mM HEPES (pH 7.2), 1 mM DTT, 0.1 mM Na3VO4, 5 mM MgCl2, 1 mM MnCl2, and 0.1% bovine serum albumin. For the measurement of the IRAK-4 inhibitory activity, a test compound was added to the reaction buffer containing 1 nM IRAK-4, 0.5 μM peptide substrate, and 10 μM ATP, and the mixture was incubated at 23° C. for 30 minutes. Then, a detection solution containing an antibody labeled with europium cryptate (0.3 μg/mL, the antibody was prepared by using the IRAK-4 peptide substrate as the antigen), streptavidin-XL665 (2 μg/mL, CisBio, Cat. 610SAXLB), 50 mM HEPES (pH 7.2), 0.1% BSA, 120 mM KF, and 66.7 mM EDTA (all the concentrations of the reagents are final concentrations) was added to terminate the reaction, and then the mixture was further incubated at 23° C. for 60 minutes. Fluorescence intensity was measured at wavelengths of 665 nm and 620 nm with a microplate reader, and the enzymatic activity was calculated as the ratio of fluorescence intensities at 665 nm and 620 nm (665 nm/620 nm).

human IRAK-4, sequence (Q9NWZ3 whole entry): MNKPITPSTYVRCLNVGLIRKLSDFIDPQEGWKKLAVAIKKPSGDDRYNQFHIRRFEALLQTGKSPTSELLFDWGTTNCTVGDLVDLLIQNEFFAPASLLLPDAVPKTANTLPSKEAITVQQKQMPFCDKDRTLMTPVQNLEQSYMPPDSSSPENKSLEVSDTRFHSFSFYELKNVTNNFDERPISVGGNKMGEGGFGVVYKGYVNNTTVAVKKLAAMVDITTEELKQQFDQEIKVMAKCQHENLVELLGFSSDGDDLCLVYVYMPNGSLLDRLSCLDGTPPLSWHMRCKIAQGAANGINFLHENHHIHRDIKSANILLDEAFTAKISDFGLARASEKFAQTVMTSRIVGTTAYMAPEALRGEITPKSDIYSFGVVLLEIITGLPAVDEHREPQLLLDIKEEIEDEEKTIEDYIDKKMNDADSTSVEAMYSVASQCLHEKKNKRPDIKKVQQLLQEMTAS

With `C[C@H]1COCCN1C1CC(C(=O)Nc2nc3ccc(-c4cnc(CO[C@H]5CCC[C@@H]5O)nc4)cc3s2)C1` (stereo partly drawn) [b-02-06], the IC50 – broadly, the concentration that inhibits the measured activity by half – in assay [1] (THP-1, 4 h) stood at 66 nM; against human IRAK-4 it was 1.34 nM.
The like results for `C[C@H]1CN(C2CC(C(=O)Nc3nc4ccc(-c5cnc(CO[C@H]6CCC[C@@H]6O)nc5)cc4s3)C2)CCO1` (stereo partly drawn) [b-02-07] were, in that order, 164 nM and 2.28 nM.
For `C[C@@H]1CN(C2CC(C(=O)Nc3nc4ccc(-c5cnc(CO[C@H]6CCC[C@@H]6O)nc5)cc4s3)C2)CCO1` (stereo partly drawn) [b-02-08] the same measures were 113 nM and 2.76 nM.
For `O=C(Nc1nc2ccc(-c3cnc(CO[C@H]4CCC[C@@H]4O)nc3)cc2s1)C1CC(N2CC3CC(C2)O3)C1` (stereo partly drawn) [b-02-09], the IC50 in assay [1] (4 hours) amounted to 142 nM; against human IRAK-4, 2.42 nM.
As for `O=C(Nc1nc2ccc(-c3cnc(CO[C@H]4CCC[C@@H]4O)nc3)cc2s1)C1CC(N2CCCC(F)(F)C2)C1` (stereo partly drawn) [b-02-10], the IC50 in assay [1] (THP-1, 4 h) was found to be 141 nM; against human IRAK-4 it was 3.94 nM.
The like results for `O=C(Nc1nc2ccc(-c3cnc(CO[C@H]4CCC[C@@H]4O)nc3)cc2s1)C1CC(N2CCC(F)CC2)C1` (stereo partly drawn) [b-02-11] were, in that order, 152 nM and 2.87 nM.
The like results for `O=C(Nc1nc2ccc(-c3cnc(CO[C@H]4CCC[C@@H]4O)nc3)cc2s1)C1CC(N2CC(F)(F)C2)C1` (stereo partly drawn) [b-02-12] were, in that order, 170 nM and 3.37 nM.
For `O=C(Nc1nc2ccc(-c3cnc(CO[C@H]4CCC[C@@H]4O)nc3)cc2s1)C1CC(N2CCC(F)(F)C2)C1` (stereo partly drawn) [b-02-13] the same measures were 175 nM and 3.77 nM.
Take `CO[C@H]1CCN(C2CC(C(=O)Nc3nc4ccc(-c5cnc(CO[C@H]6CCC[C@@H]6O)nc5)cc4s3)C2)C1` (stereo partly drawn) [b-02-14]: the IC50 stood at 164 nM in assay [1] (THP-1, 4 h) and 2.41 nM at human IRAK-4.
The like results for `CO[C@@H]1CCN(C2CC(C(=O)Nc3nc4ccc(-c5cnc(CO[C@H]6CCC[C@@H]6O)nc5)cc4s3)C2)C1` (stereo partly drawn) [b-02-15] were, in that order, 157 nM and 2.25 nM.
The like results for `O=C(Nc1nc2ccc(-c3cnc(CO[C@H]4CCC[C@@H]4O)nc3)cc2s1)C1CC(N2CCC[C@@H](F)C2)C1` (stereo partly drawn) [b-02-16] were, in that order, 107 nM and 2.01 nM.
The like results for `O=C(Nc1nc2ccc(-c3cnc(CO[C@H]4CCC[C@@H]4O)nc3)cc2s1)C1CC(N2CCC[C@H](F)C2)C1` (stereo partly drawn) [b-02-17] were, in that order, 120 nM and 1.59 nM.
`CC1(C)CN(C2CC(C(=O)Nc3nc4ccc(-c5cnc(CO[C@H]6CCC[C@@H]6O)nc5)cc4s3)C2)CCO1` (stereo partly drawn) [b-02-18]: the IC50 amounted to 164 nM in assay [1] (THP-1, 4 h) and 2.92 nM against human IRAK-4.
The like results for `C[C@@H]1CN(C2CC(C(=O)Nc3nc4ccc(-c5cnc(CO[C@H]6CCC[C@@H]6O)nc5)cc4s3)C2)C[C@H](C)O1` (stereo partly drawn) [b-02-19] were, in that order, 144 nM and 2.54 nM.
For `CC[C@H]1COCCN1C1CC(C(=O)Nc2nc3ccc(-c4cnc(CO[C@H]5CCC[C@@H]5O)nc4)cc3s2)C1` (stereo partly drawn) [b-02-20], the IC50 in assay [1] (THP-1, 4 h) turned out to be 78 nM; on human IRAK-4 it was 4.28 nM.
The like results for `CC[C@@H]1COCCN1C1CC(C(=O)Nc2nc3ccc(-c4cnc(CO[C@H]5CCC[C@@H]5O)nc4)cc3s2)C1` (stereo partly drawn) [b-02-21] were, in that order, 66 nM and 2.12 nM.
The like results for `CN1CCN(C2CC(C(=O)Nc3nc4ccc(-c5cnc(CO[C@H]6CCC[C@@H]6O)nc5)cc4s3)C2)CC1` (stereo partly drawn) [b-02-22] were, in that order, 208 nM and 1.89 nM.
The like results for `O=C(Nc1nc2ccc(-c3cnc(CO[C@H]4CCC[C@@H]4O)nc3)cc2s1)C1CC(N2CCN(CC(F)(F)F)CC2)C1` (stereo partly drawn) [b-02-23] were, in that order, 166 nM and 2.52 nM.
For the molecule `O=C(Nc1nc2ccc(-c3cnc(CO[C@H]4CCC[C@@H]4O)nc3)cc2s1)C1CC(N2CCOCC3(CC3)C2)C1` (stereo partly drawn) [b-02-24], the IC50 in assay [1] (THP-1, 4 h) was 180 nM; against human IRAK-4, 1.91 nM.
The like results for `COCCN1CCN(C2CC(C(=O)Nc3nc4ccc(-c5cnc(CO[C@H]6CCC[C@@H]6O)nc5)cc4s3)C2)CC1` (stereo partly drawn) [b-02-25] were, in that order, 199 nM and 1.98 nM.
With `C[C@H]1CCCN1C1CC(C(=O)Nc2nc3ccc(-c4cnc(CO[C@H]5CCC[C@@H]5O)nc4)cc3s2)C1` (stereo partly drawn) [b-02-26], the IC50 in assay [1] (THP-1, 4 h) worked out at 126 nM; at human IRAK-4, 1.75 nM.
The like results for `C[C@@H]1CCCN1C1CC(C(=O)Nc2nc3ccc(-c4cnc(CO[C@H]5CCC[C@@H]5O)nc4)cc3s2)C1` (stereo partly drawn) [b-02-27] were, in that order, 159 nM and 1.48 nM.
For `O=C(Nc1nc2ccc(-c3cnc(CO[C@H]4CCC[C@@H]4O)nc3)cc2s1)C1CC(N2CCN(C3CC3)CC2)C1` (stereo partly drawn) [b-02-28] the same measures were 103 nM and 2.17 nM.
As to `O=C(Nc1nc2ccc(-c3cnc(CO[C@H]4CCC[C@@H]4O)nc3)cc2s1)C1CC(NC23CC(C2)C3)C1` (stereo partly drawn) [b-02-29], the IC50 in assay [1] (THP-1, 4 h) is 124 nM; against human IRAK-4, 2.43 nM.
For `O=C(Nc1nc2ccc(-c3cnc(CO[C@H]4CCC[C@@H]4O)nc3)cc2s1)C1CC(N2CCOC(C3CC3)C2)C1` (stereo partly drawn) [b-02-30] the same measures were 137 nM and 4.12 nM.
For `O=C(Nc1nc2ccc(-c3cnc(CO[C@H]4CCC[C@@H]4O)nc3)cc2s1)C1CC(N2C[C@@H]3C[C@H]2CO3)C1` (stereo partly drawn) [b-02-31] the same measures were 194 nM and 2.36 nM.
Regarding `CC(C)[C@H]1COCCN1C1CC(C(=O)Nc2nc3ccc(-c4cnc(CO[C@H]5CCC[C@@H]5O)nc4)cc3s2)C1` (stereo partly drawn) [b-02-32], the IC50 is 41 nM in assay [1] (THP-1, 4 h) and 2.37 nM against human IRAK-4.
As to `O=C(Nc1nc2ccc(-c3cnc(CO[C@H]4CCC[C@@H]4O)nc3)cc2s1)C1CC(N2CCOCC23CCC3)C1` (stereo partly drawn) [b-02-33], the IC50 in assay [1] (THP-1, 4 h) was found to be 51 nM; at human IRAK-4 it was 1.63 nM.
The like results for `CC(C)[C@@H]1COCCN1C1CC(C(=O)Nc2nc3ccc(-c4cnc(CO[C@H]5CCC[C@@H]5O)nc4)cc3s2)C1` (stereo partly drawn) [b-02-34] were, in that order, 116 nM and 2.52 nM.
On to `O=C(Nc1nc2ccc(-c3cnc(CO[C@H]4CCC[C@@H]4O)nc3)cc2s1)C1CC(N2CCOCC(F)(F)C2)C1` (stereo partly drawn) [b-02-35], for which the IC50 in assay [1] (THP-1, 4 h) came to 140 nM; on human IRAK-4 it was 2.52 nM.
The like results for `CC1COCCCN1C1CC(C(=O)Nc2nc3ccc(-c4cnc(CO[C@H]5CCC[C@@H]5O)nc4)cc3s2)C1` (stereo partly drawn) [b-02-36] were, in that order, 145 nM and 1.82 nM.
For `O=C(Nc1nc2ccc(-c3cnc(CO[C@H]4CCC[C@@H]4O)nc3)cc2s1)C1CC(N2CCOCC23CC3)C1` (stereo partly drawn) [b-02-37], the IC50 worked out at 94 nM in assay [1] (THP-1, 4 h) and 2.22 nM against human IRAK-4.
The like results for `CC(=O)N1CCN(C2CC(C(=O)Nc3nc4ccc(-c5cnc(CO[C@H]6CCC[C@@H]6O)nc5)cc4s3)C2)CC1` (stereo partly drawn) [b-02-38] were, in that order, 150 nM and 2.98 nM.
For `COC[C@@H]1CCN(C2CC(C(=O)Nc3nc4ccc(-c5cnc(CO[C@H]6CCC[C@@H]6O)nc5)cc4s3)C2)C1` (stereo partly drawn) [b-02-39] the same measures were 182 nM and 1.9 nM.
For `O=C(Nc1nc2ccc(-c3cnc(CO[C@H]4CCC[C@@H]4O)nc3)cc2s1)C1CC(N2CC[C@H](O)C2)C1` (stereo partly drawn) [b-02-40] the same measures were 139 nM and 1.62 nM.
`CN1CCN(C2CC(C(=O)Nc3nc4ccc(-c5cnc(CO[C@H]6CCC[C@@H]6O)nc5)cc4s3)C2)CC(F)(F)C1` (stereo partly drawn) [b-02-41]: the IC50 was 160 nM in assay [1] (THP-1, 4 h) and 2.86 nM at human IRAK-4.
For `N#CC12CC(NC3CC(C(=O)Nc4nc5ccc(-c6cnc(CO[C@H]7CCC[C@@H]7O)nc6)cc5s4)C3)(C1)C2` (stereo partly drawn) [b-02-42] the same measures were 123 nM and 1.93 nM.
The like results for `O=C(Nc1nc2ccc(-c3cnc(CO[C@H]4CCC[C@@H]4O)nc3)cc2s1)C1CC(N2CCC[C@@H]2C(F)(F)F)C1` (stereo partly drawn) [b-02-43] were, in that order, 123 nM and 3.1 nM.
The like results for `O=C(Nc1nc2ccc(-c3cnc(CO[C@H]4CCC[C@@H]4O)nc3)cc2s1)C1CC(N2CCC[C@H]2C(F)(F)F)C1` (stereo partly drawn) [b-02-44] were, in that order, 143 nM and 3.93 nM.
